Results on 16 compounds are retold here after publication PMC12410723, “Structure-function studies of Vibrio cholerae quorum-sensing receptor CqsR signal recognition” (PLOS Pathogens, 2025).

One experiment concerns CqsRp. Particulars: thermal unfolding; cited from earlier work.
For experiment [1], the target named is CqsR periplasmic domain (CqsRp) (Vibrio cholerae, UniProt Q9KR16). Particulars: MST binding studies, summary of Fig 4.
For a further experiment, the system named is WT CqsR. Particulars: WT CqsR strain, exogenously added ethanolamine.
A further experiment has as its system CqsR-Y169A. As to conditions: CqsR-Y169A strain, exogenously added ethanolamine.
The test system of the next experiment is CqsR-T196A. As to conditions: CqsR-T196A strain, exogenously added ethanolamine.
In another experiment the test system is CqsR-W151A. Particulars: CqsR-W151A strain, exogenously added ethanolamine.
Another experiment relates to CqsR-D171A. As to conditions: CqsR-D171A strain, exogenously added ethanolamine.
A further experiment concerns CqsR-D198N. Particulars: CqsR-D198N strain, exogenously added ethanolamine.
The next experiment concerns CqsR. As to conditions: in vivo / in culture, high-cell-density phenotype; cited from earlier work.

Structures are written as SMILES.

Take `NC(CO)CO` [Serinol, serinol]: the CqsRp melting temperature entry in the experiment on CqsRp is reported as “increased”.
As for `OCCO` [Ethylene glycol, ethylene glycol], the “CqsR binding (in words)” value in experiment [1] was “No binding”.
The same measure, in the same setting: the entry for `NCC(N)=O` [glycinamide] is “not tolerated”.
Consider `CC[C@H](N)CO` [(S)-(+)-2-amino-1-butanol], for which the “CqsR binding (in words)” value in [1] was “Weak CqsR binding”.
On to `NCCO` [Ethanolamine, ethanolamine], for which the “qrr4 transcription (bioluminescence)” value in the experiment with WT CqsR is “reduced in a dose-dependent manner”; with CqsR-Y169A it was “reduced to a level comparable to that of the WT”; with CqsR-T196A it was “reduced to a level comparable to that of the WT”; with CqsR-W151A, “intermediate phenotype”; with CqsR-D171A it was “intermediate phenotype”; with CqsR-D198N, “completely irresponsive”. The CqsR signaling agonism entry in the experiment on CqsR was “acted as CqsR signaling agonists”.
For `CCCO` [propanol], in experiment [1], the “CqsR binding (in words)” value is recorded as “No binding”.
Same read-out and setting: the same measure for `NCC(=O)O` [Glycine, glycine]: “not tolerated”; for `NCCN` [Ethylenediamine, ethylenediamine]: “Weak CqsR binding”; for `NCCS` [cysteamine]: “not tolerated”.
On the same count and under the same terms, the same measure for `CCC(N)CO` (stereo not shown) [2-amino-1-butanol]: “Weak CqsR binding”; for `C[C@H](N)C(=O)O` [Alanine, alanine]: “not tolerated”.
The same measure, in the same setting: the entry for `CCCN` [propylamine] is “not tolerated”; for `OCC(O)CO` [Glycerol, glycerol] it is “No binding”; for `NC(CO)(CO)CO` [Tris, tris] it is “Weak CqsR binding”.
In the case of `C[C@H](N)CO` [L-alaninol], the CqsRp melting temperature entry in the experiment on CqsRp is recorded as “increased”.
Regarding `CCC(N)CC` [pentan-3-amine], the “CqsR binding (in words)” value in experiment [1] is “not tolerated”.
